Laboratory results reported in US10143666B2, “Small molecule inhibitors targeting CAG-repeat RNA toxicity in polyglutamine diseases” (The Chinese University of Hong Kong, priority 2015, dated 2018).
Where “and” joins values, the source holds several entries; their conditions need not be identical. Equal values may be shown once. Read-outs that look alike come from different tables or passages of the source.

What was measured:
α-synuclein fly = experiment: Neurodegeneration in α-synuclein fly (Parkinson's disease model); format: in vivo, Drosophila
Experimental: (§1) Other disease fly models, including α-synuclein (Parkinson's disease)^13, CTG480 (Myotonic dystrophy 1)^14 and CGG90 (Fragile X syndrome)^15 were employed to address the specificity of DB213 on trinucleotide repeat expansion RNA toxicity.
(§2) Flies were raised at 21.5° C. on cornmeal medium supplemented with dry yeast. Pseudopupil assay was performed on 12 day-old adult flies as mentioned previously^18. Images were captured by SPOT Insight CCD camera controlled by the SPOT Advanced software (Diagnostic instruments Inc.). External eye assay was performed on 12 day-old adult flies by Olympus SZX-12 stereomicroscope. Eye images were captured using a SPOT Insight CCD camera (Diagnostic instruments Inc.).

DsRedCAG100 fly = experiment: Pseudopupil assay in DsRedCAG100 fly (expanded CAG-repeat RNA toxicity); format: in vivo, Drosophila; conditions: 12 day-old adult flies
From the text: (§3) The synthesis of DB213 was described in Marcheschi et al. (Scheme 1)^12, see FIG. 1. By using a MJD (one kind of polyQ diseases) Drosophila disease model, the inventors established an effective screening platform to test a series of synthesized small molecules for their activity to suppress polyQ-induced neurodegeneration. […] To test whether the compounds acted on CAG-repeat RNA level, another Drosophila model, DsRedCAG100^6, was employed. […] Therefore, DB213 was confirmed to modulate expanded CAG-repeat RNA-mediated toxicity in vivo.
as §2

r(CAG)7 RNA = experiment: Isothermal titration calorimetry (ITC) binding assay; conditions: 25° C., DB213 800 μM titrated to r(CAG)7 RNA 40 μM, one binding site model
Experimental: It was next investigated that whether DB213 would interact physically with CAG-repeat RNA and sequestrate the toxic RNA species from their pathogenic pathway. Isothermal titration calorimetry (ITC)^17 was adopted to identify the RNA-binding property of DB213.
Experiments were carried out using a MicroCal iTC200 isothermal titration calorimeter (GE Healthcare) at 25° C. Data were analyzed using the Origin® scientific plotting software version 7 (Microcal Software Inc.). DB213 (800 μM) was titrated to synthesized r(CAG)7 RNA (40 μM). The thermal titration data were fitted to the ‘one binding site model’ to determine the dissociation constant (KD).

trMJDCAG78 cells = experiment: LDH cytotoxicity assay, trMJDCAG78 cell model; format: cell-based, human; conditions: both RNA and polyQ protein toxicities
Experimental: (§4) It was next investigated whether DB213 could mitigate expanded CAG-repeat RNA-mediated toxicity in SK-N-MC human neuronal cell. […] Taken together, DB213 could suppress the expanded CAG RNA-mediated but not polyQ protein-mediate toxicity in human neuronal cell.
(§5) SK-N-MC human neuronal cells were seeded on a 24-well plate and lactate dehydrogenase enzyme activity in the cell culture medium was measured 72 hours post-transfection and drugs treatment using the Cytotox 96 non-radioactive cytotoxicity assay (Promega).

CTG480 fly = experiment: Neurodegeneration in CTG480 fly (Myotonic dystrophy 1 model); format: in vivo, Drosophila
Experimental: as §1, §2

[1] = test system: pre-45s rRNA in EGFPCAG27 RNA expressing cell; experiment: pre-45s rRNA real-time PCR, EGFPCAG27 RNA expressing cells; format: cell-based, human
Experimental: (§6) Nucleolar stress and a chain of downstream events were triggered and ultimately led to apoptosis^7.
(§7) RNA was extracted from cells by Trizol reagent (Life Technologies), and 1 μg of purified RNA was then used for reverse-transcription using the ImPromII™ Reverse Transcription System (Promega). Random hexamer (Roche) was used as primers in reverse transcription. Taqman gene expression assays were performed on an ABI 7500 Real-time PCR system and data were analyzed as previously described^7. The following probes were used: pre-45s rRNA (Assay ID: AILJIZM) and actin (Assay ID: Hs99999903_m1).

[2] = test system: pre-45s rRNA in EGFPCAG78 RNA expressing SK-N-MC cells; experiment: pre-45s rRNA real-time PCR, EGFPCAG78 RNA expressing SK-N-MC cells; format: cell-based, human
Experimental: as §6, §7

CGG90 fly = experiment: Neurodegeneration in CGG90 fly (Fragile X syndrome model); format: in vivo, Drosophila
Experimental: as §1, §2

[3] = test system: EGFPCAG78 RNA expressing SK-N-MC cells; experiment: LDH cytotoxicity assay, EGFPCAG78 RNA expressing SK-N-MC cells; format: cell-based, human
Experimental: as §4, §5

DsRedCAG0 control fly = test system: DsRedCAG0 control fly; parameters: species or system Drosophila; conditions: in vivo
From the text: as §3, §2

[4] = Body temperature (rectum) in R6/2 mice; conditions: for Body temperature vs vehicle: day 7, p<0.05
Experimental: (§8) Body temperature was measured from rectum on day 1 (baseline), and on days 3, 5 and 7.
(§9) Body temperature was measured from rectum on day 1 (baseline) and on days 3, 5 and 7.

[5] = mouse, in vivo, iv, 50 mg/kg
Experimental: as §8, §9

Q: For `CN(C)CCCNC(=N)c1ccc(C(=N)NCCCN(C)C)cc1.Cl.Cl.Cl.Cl` [DB213], which Suppression of neurodegeneration (α-synuclein fly) is on record?
A: Its Suppression of neurodegeneration is “did not suppress the neurodegeneration”.

Q: What about the “Suppression of DsRedCAG100 RNA-mediated toxicity (neurodegeneration)” value (DsRedCAG100 fly) of the same molecule?
A: Its value is “suppressed the DsRedCAG100 RNA-mediated toxicity in a dose-dependent manner”.

Q: And the Kd (r(CAG)7 RNA)?
A: The Kd was 1530 ± 250 nM.

Q: What about the “Cell death (LDH assay)” value (trMJDCAG78 cells) of the same molecule?
A: The value was “only partially inhibited the abnormal cell death”.

Q: And the Suppression of neurodegeneration (CTG480 fly)?
A: Its Suppression of neurodegeneration is “did not suppress the neurodegeneration”.

Q: And the “pre-45s rRNA transcription level” value [1]?
A: The value was “did not alter the pre-45s rRNA transcription level”.

Q: What about the “pre-45s rRNA transcription level” value [2] of the same molecule?
A: Its value is “could restore the pre-45s rRNA transcription level”.

Q: What about the Suppression of neurodegeneration (CGG90 fly) of the same molecule?
A: The Suppression of neurodegeneration was “did not suppress the neurodegeneration”.

Q: And the “Cell death induced by EGFPCAG78 RNA (LDH assay)” value ([3]; 72 hours post-transfection and treatment)?
A: Its value is “could be suppressed”.

Q: What about the IC50 ([3]; read-out: IC50, inhibition of cell death induced by EGFPCAG78 RNA (LDH enzyme activity reduced by 50%)) of the same molecule?
A: Its IC50 is 6.9 ± 1.8 nM.

Q: What about the “Dominant toxic effect in control fly” value (DsRedCAG0 control fly) of the same molecule?
A: The value was “did not show any dominant toxic effect”.

Q: What about the “Body temperature vs vehicle” value ([4]; i.n. 100 mg/kg) of the same molecule?
A: Its value is “increased”.

Q: And the “Body temperature vs vehicle” value ([4]; i.n. 300 mg/kg)?
A: Its value is “increased”.

Q: And the “Body temperature (group Mean)” value ([4]; i.n. daily 50 mg/kg, Day 1 (baseline))?
A: Its value is 36.9.

Q: What about the “Body temperature (individual mouse)” value ([4]; i.n. daily 50 mg/kg, Day 1 (baseline), listed as Compound-5, 50 mg/kg) of the same molecule?
A: The value was 37 and 35.9 and 36.4.

Q: What about the “Body temperature (group Mean)” value ([4]; i.n. daily 50 mg/kg, Day 3) of the same molecule?
A: The value was 36.9.

Q: What about the “Body temperature (individual mouse)” value ([4]; i.n. daily 50 mg/kg, Day 3, listed as Compound-5, 50 mg/kg) of the same molecule?
A: The value was 36.9 and 35.8 and 37.

Q: What about the “Body temperature (individual mouse)” value ([4]; i.n. daily 50 mg/kg, Day 5, listed as Compound-5, 50 mg/kg) of the same molecule?
A: The value was 37.9.

Q: And the “Body temperature (individual mouse)” value ([4]; i.n. daily 50 mg/kg, Day 7, listed as Compound-5, 50 mg/kg)?
A: Its value is 37 and 38.1.

Q: What about the “Body temperature (group Mean)” value ([4]; i.n. daily 100 mg/kg, Day 1 (baseline)) of the same molecule?
A: The value was 37.0.

Q: And the “Body temperature (individual mouse)” value ([4]; i.n. daily 100 mg/kg, Day 3, listed as Compound-5, 100 mg/kg)?
A: Its value is 37.7 and 37 and 36.9.

Q: And the “Body temperature (individual mouse)” value ([4]; i.n. daily 100 mg/kg, Day 5, listed as Compound-5, 100 mg/kg)?
A: The value was 37.7 (2×) and 36.6 and 37.9 and 36.9.

Q: What about the “Body temperature (individual mouse)” value ([4]; i.n. daily 100 mg/kg, Day 7, listed as Compound-5, 100 mg/kg) of the same molecule?
A: Its value is 38.1 and 37.7 and 36.9.

Q: And the “Body temperature (individual mouse)” value ([4]; i.n. daily 200 mg/kg, Day 1 (baseline), listed as Compound-5, 200 mg/kg)?
A: The value was 36.9 (2×) and 37.7.

Q: What about the “Body temperature (individual mouse)” value ([4]; i.n. daily 200 mg/kg, Day 3, listed as Compound-5, 200 mg/kg) of the same molecule?
A: Its value is 36.6.

Q: And the “Body temperature (individual mouse)” value ([4]; i.n. daily 200 mg/kg, Day 5, listed as Compound-5, 200 mg/kg)?
A: Its value is 38.

Q: And the “Body temperature (individual mouse)” value ([4]; i.n. daily 300 mg/kg, Day 5, listed as Compound-5, 300 mg/kg)?
A: Its value is 38.

Q: What about the “Body temperature (individual mouse)” value ([4]; i.n. daily 300 mg/kg, Day 7, listed as Compound-5, 300 mg/kg) of the same molecule?
A: The value was 37.9.

Q: What about the “Body temperature (group Mean)” value ([4]; i.v. 50 mg/kg (treatment discontinued), Day 3, n 1) of the same molecule?
A: Its value is 37.7.

Q: And the “Body temperature (group Mean)” value ([4]; i.v. 50 mg/kg (treatment discontinued), Day 5, n 1)?
A: Its value is 38.0.

Q: What about the “Body temperature (group Mean)” value ([4]; i.v. 50 mg/kg (treatment discontinued), Day 7, n 1) of the same molecule?
A: Its value is 37.0.

Q: What about the “Body temperature, differences between treatment groups” value ([4]; i.v. dosing, p>0.05) of the same molecule?
A: Its value is “no significant differences”.

Q: And the “Body temperature (group Mean)” value ([4]; i.v. twice-a-week 12.5 mg/kg, Day 1 (baseline))?
A: Its value is 36.7.

Q: And the “Body temperature (individual mouse)” value ([4]; i.v. twice-a-week 12.5 mg/kg, Day 1 (baseline), listed as Compound-5)?
A: Its value is 35.7 and 37.

Q: And the “Body temperature (individual mouse)” value ([4]; i.v. twice-a-week 12.5 mg/kg, Day 3, listed as Compound-5)?
A: Its value is 38.

Q: And the “Body temperature (group Mean)” value ([4]; i.v. twice-a-week 12.5 mg/kg, Day 5)?
A: The value was 37.0.

Q: And the “Body temperature (individual mouse)” value ([4]; i.v. twice-a-week 12.5 mg/kg, Day 5, listed as Compound-5)?
A: The value was 37.

Q: What about the “Body temperature (individual mouse)” value ([4]; i.v. twice-a-week 12.5 mg/kg, Day 7, listed as Compound-5) of the same molecule?
A: Its value is 37 and 38.6.

Q: What about the “Body temperature (group Mean)” value ([4]; i.v. twice-a-week 25 mg/kg, Day 1 (baseline)) of the same molecule?
A: The value was 37.0.

Q: What about the “Body temperature (individual mouse)” value ([4]; i.v. twice-a-week 25 mg/kg, Day 1 (baseline), listed as Compound-5) of the same molecule?
A: The value was 37.9 and 36.6 and 36.4 and 38.5.

Q: What about the “Body temperature (individual mouse)” value ([4]; i.v. twice-a-week 25 mg/kg, Day 3, listed as Compound-5) of the same molecule?
A: Its value is 36.9.

Q: And the “Body temperature (individual mouse)” value ([4]; i.v. twice-a-week 25 mg/kg, Day 5, listed as Compound-5)?
A: Its value is 37.9.

Q: What about the Body temperature ([4]; intranasal dosing) of the same molecule?
A: Its Body temperature is “increased”.

Q: And the “Body temperature (group Mean)” value [5]?
A: Its value is 37.5.
